Measured values as given in US6458590B1, “Methods and compositions for treatment of restenosis” (The United States of America, as represented by the …, priority 1997, dated 2002).

Tests used:
CASMCs = assay: CASMC proliferation assay ([3H]thymidine); type: cell-based, human
Procedure: CASMCs were cultured as described above and the cells were starved in serum free media for 48 h. The proliferation assays were performed as described previously (Monfardini et al., (1995) J. Biol. Chem. 270:6628-6638). Briefly, the cells were incubated in the absence or presence of PDGF-AB (100 ng/ml) (Upstate Biotechnology, Lake Placid, N.Y.) and increasing concentrations of OPN (1.0-6.0 μg/ml) at 37° C. for 24 h. In separate experiments, cells were pre-treated with either mouse anti human αvβ3-antibody (5 μg/ml), preimmune IgG or GRGDS peptide (10 nM) followed by OPN (3.0 μg/ml). After 4 h, [3H]thymidine (1 μCi/ml) was added and the cells were maintained in culture for an additional 24 h under the same culture conditions as described previously. After removing the supernatants, the cells were washed with basal medium and lysed in 50% TCA. The acid precipitable cell-bound radioactivity was measured using a scintillation counter (Beckman).

human CASMC = assay: CASMC migration assay (Transwell); type: cell-based; settings: OPN 0.68 or 1.36 μg/ml as chemoattractant, 24 h
Procedure: Migration of CASMC was performed using Transwell cell culture chambers with an […] pore size polycarbonate membrane (Costar) as described previously (Yue et al., (1994) Exptl. Cell Res. 214:459-464). Briefly, sub-confluent human CASMC were trypsinized, centrifuged and resuspended in basal medium (SmBM) supplemented with 0.2% BSA. This was followed by the addition of 0.25 ml of cell suspension (5×10^4 cells) to the upper compartnent of the chamber. The lower compartment contained 0.5 ml of basal medium supplemented with 0.2% BSA together with 0.68 μg/ml OPN, 1.36 μg/ml OPN, or buffer alone. After incubation at 37° C. for 24 h., the non-migrated cells on the upper surface of the filters were scraped and washed. The migrated cells were fixed in methanol, stained with Giemsa stain, counted under an inverted microscope and photomicrographed (120×) using a Zeiss photomicroscope (Axiovert 405 M). In separate experiments, cells in the upper compartment were also treated with monoclonal mouse anti-human αvβ3-antibody (Chemicon) (10 μg/ml) before being assayed for migration in order to ascertain whether this OPN-stimulated migration is mediated via αvβ3. Preimmune IgG treatment served as a non-specific control.

CASMC = assay: ECM-invasion assay (matrigel-coated invasion chamber); type: cell-based, human; settings: OPN 0.5-2.0 μg/ml, 24 h
Procedure: The ECM-invasion assay was performed using a commercially available 24-well matrigel-coated invasion chamber (Collaborative Research) as described previously (Kundu et al., (1996) Proc. Natl. Acad. Sci. (USA) 93:2915-2919). Briefly, the confluent CASMC were trypsinized, centrifuged, and resuspended in basal medium supplemented with 0.1% BSA. The lower compartment of the invasion chamber was filled with fibroblast-conditioned medium (FCM) which served as a chemoattractant. The invasion assays were initiated by inoculating the upper chamber with cells (1×10^5/well) which were either untreated or treated with varying concentrations of OPN (0.5-2.0 μg/ml). After incubating at 37° C. for 24 h, the cells in the upper chamber were discarded, the matrigel was scraped clear and the cells which had invaded the matrigel and migrated to the lower surface of the filter, were fixed, stained, counted and photomicrographed (120×) as described above. The cells were also pre-treated with mouse anti-human αvβ3 antibody (Chemicon) (10 μg/ml) as described above to determine if the OPN-induced invasion was mediated via αvβ3. Preimmune IgG was used as a non-specific control.

OPN [1] = assay: OPN production in PMA-stimulated CASMCs (immunoprecipitation, Western blotting); type: cell-based, human; settings: 250 nM PMA, 37° C., 24 h
Procedure: An in vitro assay was used in order to determine whether an increase in OPN gene expression is detectable. Since phorbol myristate acetate (PMA) is known to induce OPN gene expression, CASMCs were stimulated with PMA, and OPN production was detected by immunoprecipitation of cell lysates followed by Western blotting.
CASMCs were incubated with Phorbol 12-myristate 13-acetate (PMA) (250 nM) at 37° C. for 24 h. The cells were immunoprecipitated using a kit according to manufacturer's (Boehringer Mannheim) instructions. Briefly, the cells were lysed with lysis buffer, centrifuged and the supernatant incubated with rabbit OPN-antibody for 1 h then with protein A-agarose at 4° C. overnight. Bound complexes were pelleted by centrifugation, washed and electrophoresed. Western blot analysis was done as described, supra.

[2] = test system: human coronary artery smooth muscle cells (CASMCs); assay: Proliferation of CASMCs after lipofection with OPN oligonucleotides ([3H]-thymidine); type: cell-based; settings: oligonucleotide 1.5 μg/200 μl with LIPOFECTIN 5 μg/200 μl
Procedure: (§1) CASMCs (Clonetics) were transfected with a “LIPOFECTIN”-oligonucleotide complex according to the manufacturer's (GIBCO-BRL Life Technologies, Inc. Gaithersburg, Md.) specifications. Briefly, 5 μg of “LIPOFECTIN” was mixed with either 1 or 2 μg of antisense oligonucleotide in 200 μl of serum free medium (SFM) (also called basal medium) and incubated at room temperature for 15 min. Cells (1×10^5 cells/well, 12-well plate) during log phase of growth were washed with SFM and 1 ml of SFM containing Lipofectin with different amounts of antisense S-oligonucleotides was added to each well and mixed by gentle agitation. The cells were incubated further with the same medium at 37° C. for 12 h. Additional control cells which received either SFM, or SFM which contained “LIPOFECTIN” alone, were also included. […] The SFM medium containing “LIPOFECTIN”-oligonucleotide complex was removed, and the cells incubated for an additional 48 h in regular medium. At the end of this incubation period, the cells were ready for the determination of a dose response on OPN expression as measured by Western blotting.
The effect of antisense ASHOPN-P1 on the proliferation of human coronary artery smooth muscle cells (CASMCs) was determined as described supra. […] The acid precipitable radioactivity was measured using a scintillation beta counter (Beckman).

OPN [3] = assay: OPN expression in lipofected CASMCs (immunoprecipitation, Western blot); type: cell-based, human
Procedure: as §1
The effect of antisense OPN sequences on OPN expression was determined by Western blot analysis as described above. […]

Gly-Arg-Gly-Asp-Ser (GRGDS) [reference compound]
effect on OPN-induced proliferation (CASMCs; pre-treatment: αvβ3-antibody 5 μg/ml or GRGDS 10 nM, then OPN 3.0 μg/ml): drastically inhibited

osteopontin [OPN]
rate of migration of CASMCs (human CASMC): enhanced with increasing concentrations | invasiveness of CASMCs on MATRIGEL (CASMC): enhanced their invasiveness | CASMC proliferation (CASMCs; OPN 1.0-6.0 μg/ml): stimulated their proliferation in a dose-dependent manner | CASMC proliferation, OPN in conjunction with PDGF-AB (CASMCs; with 100 ng/ml of PDGF-AB): dramatic dose-dependent effect | CASMC proliferation, OPN alone (CASMCs; without PDGF-AB): modest proliferative response

CCCCCCCCCCCCCC(=O)O[C@@H]1[C@@H](C)[C@@]2(O)[C@@H](C=C(CO)C[C@]3(O)C(=O)C(C)=C[C@@H]23)[C@@H]2C(C)(C)[C@]12OC(C)=O [PMA, Phorbol 12-myristate 13-acetate]
level of OPN protein in stimulated cells versus unstimulated cells (OPN [1]): markedly higher

5′CCATGAGAATTGCAGTGATT-3′ (all phosphorothioate, sugars by position and methylation of C not given here; listed as Homo sapiens) [SHOPN, reference compound]
inhibition of cell proliferation as compared to cells treated with LIPOFECTIN alone [2]: about 50%

5′-AATCACTGCAATTCTCATGG-3′ (all phosphorothioate, sugars by position and methylation of C not given here; listed as Homo sapiens) [ASHOPN-P1]
inhibition of cell proliferation as compared to cells treated with LIPOFECTIN alone [2]: 82% | expression of OPN by CASMCs (OPN [3]; 1 or 2 μg S-oligonucleotide with LIPOFECTIN, versus LIPOFECTIN-treated or sense-treated cells): capable of inhibiting expression of OPN | specificity of the antisense effect (OPN [3]; compared with OPN sense-treated cells): specific

platelet-derived growth factor-AB [PDGF-AB, reference compound]
CASMC proliferation, PDGF-AB alone (CASMCs; PDGF-AB 100 ng/ml, without OPN): virtually no effect
